Measured values published in US11702422B2, “Imidazopyridazines as modulators of IL-17” (Janssen Pharmaceutica NV, priority 2020, dated 2023).

Legend:
[1] = target: IL-17A(FLAG-Tagged): IL-17RA(His-Tagged) (Homo sapiens, UniProt Q16552, K93Q); assay: IL-17A(FLAG-Tagged): IL-17RA(His-Tagged) Binding Disruption Eu-HTRF Assay; conditions: IL-17A/IL-17RA binding disruption, simple average if tested more than once
Summary of the method: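 IC50 comes from a one-site competition fit of the HTRF 665/620 nm ratio. Compound dilutions (2-fold, 22 points) were held 1 h rt with FLAG-tagged IL-17A dimer, then His-tagged IL-17RA plus Eu-cryptate anti-FLAG and D2 anti-His antibodies were added for 2 h rt.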

[2] = test system: IL-17A-induced G-CSF production in human normal keratinocyte (NHK); assay: NHK Assay: IL-17A-induced G-CSF production in human normal keratinocytes; type: cell-based; conditions: 24 h, adult normal human keratinocytes, IL-17A 5 ng/mL, simple average if tested more than once
Summary of the method: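 G-CSF released by primary adult human keratinocytes after 24 h at 37° C was quantified by HTRF via standard curve to give IC50. Stimulus was 5 ng/mL IL-17A pre-mixed 1 h at rt with compound dilutions, in 5% FBS and 0.2% DMSO. Cell viability was assessed in parallel with CellTiter-Glo.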

UniProt Q16552, sequence (Q16552 with tags, fused parts or gaps K93Q): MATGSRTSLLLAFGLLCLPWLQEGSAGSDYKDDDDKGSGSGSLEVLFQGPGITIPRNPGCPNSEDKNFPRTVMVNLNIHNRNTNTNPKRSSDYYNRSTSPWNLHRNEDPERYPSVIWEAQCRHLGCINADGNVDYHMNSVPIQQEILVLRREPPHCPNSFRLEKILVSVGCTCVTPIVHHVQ

IC50 [1] [nM] | Structure (SMILES) | IC50 ([2]; Homo sapiens, Keratinocyte) [nM] | IC50 [2] [nM]
130 | O=C(CCC(F)(F)F)N[C@@H](c1cnn2cc([C@@H](NC(=O)c3cnn(CC4CC(F)(F)C4)n3)C3CCC(F)(F)CC3)nc2c1)C1CC1 [Example 63, N—((S)-(7-((R)-Cyclopropyl(4,4,4-trifluorobutanamido)methyl)imidazo[1,2-b]pyridazin-2-yl)(4,4-difluorocyclohexyl)methyl)-2-((3,3-difluorocyclobutyl)methyl)-2H-1,2,3-triazole-4-carboxamide] | 200 | –
440 | O=C(CCC(F)(F)F)N[C@@H](c1cnn2cc([C@@H](NC(=O)c3cc(C(F)(F)F)ncn3)C3CCC(F)(F)CC3)nc2c1)C1CC1 [Example 202, N—((S)-(7-((R)-Cyclopropyl(4,4,4-trifluorobutanamido)methyl)imidazo[1,2-b]pyridazin-2-yl)(4,4-difluorocyclohexyl)methyl)-6-(trifluoromethyl)pyrimidine-4-carboxamide] | 2300 | –
380 | [2H]C([2H])([2H])n1nccc1C(=O)N[C@H](c1cn2ncc([C@@H](NC(=O)CC3CC(F)(F)C3)C3CCC3)cc2n1)C1CCC(F)(F)CC1 (relative stereo) [Example 498, N—((S)-(7-((S*)-Cyclobutyl(2-(3,3-difluorocyclobutyl)acetamido)methyl)imidazo[1,2-b]pyridazin-2-yl)(4,4-difluorocyclohexyl)methyl)-1-methyl-d3)-1H-pyrazole-5-carboxamide] | 20000 | –
54 | O=C(CC1CC(F)(F)C1)N[C@@H](c1cnn2cc([C@@H](NC(=O)c3nonc3N3CCOCC3)C3CCC(F)(F)CC3)nc2c1)C1CC1 [Example 408, N—((S)-(7-((R)-Cyclopropyl(2-(3,3-difluorocyclobutyl)acetamido)methyl)imidazo[1,2-b]pyridazin-2-yl)(4,4-difluorocyclohexyl)methyl)-4-morpholino-1,2,5-oxadiazole-3-carboxamide] | 370 | –
52 | CC(C)(C[C@H](NC(=O)c1nonc1C1CC1)c1cn2ncc([C@H](NC(=O)CC3CC(F)(F)C3)C3CC3)cc2n1)C(F)(F)F [Example 542, 4-Cyclopropyl-N—((S)-1-(7-((R)-cyclopropyl(2-(3,3-difluorocyclobutyl)acetamido)methyl)imidazo[1,2-b]pyridazin-2-yl)-4,4,4-trifluoro-3,3-dimethylbutyl)-1,2,5-oxadiazole-3-carboxamide] | 46 | –
180 | O=C(CCC(F)(F)F)N[C@@H](c1cnn2cc([C@@H](NC(=O)c3ncnn3CCCF)C3CCC(F)(F)CC3)nc2c1)C1CC1 [Example 47, N—((S)-(7-((R)-Cyclopropyl(4,4,4-trifluorobutanamido)methyl)imidazo[1,2-b]pyridazin-2-yl)(4,4-difluorocyclohexyl)methyl)-1-(3-fluoropropyl)-1H-1,2,4-triazole-5-carboxamide] | 640 | –
300 | CC(CC(=O)N[C@@H](c1cnn2cc([C@@H](NC(=O)c3conc3OCC(F)F)C3CCC(F)(F)CC3)nc2c1)C1CC1)C(F)(F)F (single isomer, unassigned) [Example 299, N—((S)-(7-((R)-Cyclopropyl((S*)-4,4,4-trifluoro-3-methylbutanamido)methyl)imidazo[1,2-b]pyridazin-2-yl)(4,4-difluorocyclohexyl)methyl)-3-(2,2-difluoroethoxy)isoxazole-4-carboxamide] | – | 840
290 | O=C(CCC(F)(F)F)NC(c1cnn2cc([C@@H](NC(=O)c3cnn(CCC(F)(F)F)c3)C3CCC(F)(F)CC3)nc2c1)C1CC1 (single isomer, unassigned) [Example 6, N—((S)-(7-((R*)-Cyclopropyl(4,4,4-trifluorobutanamido)methyl)imidazo[1,2-b]pyridazin-2-yl)(4,4-difluorocyclohexyl)methyl)-1-(3,3,3-trifluoropropyl)-1H-pyrazole-4-carboxamide] | – | 570
350 | CCc1ccccc1C(=O)N[C@H](c1cn2ncc([C@H](NC(=O)CCC(F)(F)F)C3CC3)cc2n1)C1CCC(F)(F)CC1 [Example 41, N—((S)-(7-((R)-Cyclopropyl(4,4,4-trifluorobutanamido)methyl)imidazo[1,2-b]pyridazin-2-yl)(4,4-difluorocyclohexyl)methyl)-2-ethylbenzamide] | 2000 | –
4300 | COc1nccc(C(=O)N[C@H](c2cn3ncc([C@H](NC(=O)CCC(F)(F)F)C4CC4)cc3n2)C2CCC(F)(F)CC2)n1 [Example 211, N—((S)-(7-((R)-Cyclopropyl(4,4,4-trifluorobutanamido)methyl)imidazo[1,2-b]pyridazin-2-_yl)(4,4-difluorocyclohexyl)methyl)-2-methoxypyrimidine-4-carboxamide] | > 20000 | –
5400 | Cc1nonc1C(=O)N[C@H](c1cn2ncc(C(C)NC(=O)CCC(F)(F)F)cc2n1)C1CCC(F)(F)CC1 (single isomer, unassigned) [Example 505, N—((S)-(4,4-Difluorocyclohexyl)(7-((R*)-1-(4,4,4-trifluorobutanamido)ethyl)imidazo[1,2-b]pyridazin-2-yl)methyl)-4-methyl-1,2,5-oxadiazole-3-carboxamide] | – | > 20000
2900 | Cc1cnccc1C(=O)N[C@H](c1cn2ncc([C@H](NC(=O)CCC(F)(F)F)C3CC3)cc2n1)C1CCC(F)(F)CC1 [Example 214, N—((S)-(7-((R)-Cyclopropyl(4,4,4-trifluorobutanamido)methyl)imidazo[1,2-b]pyridazin-2-yl)(4,4-difluorocyclohexyl)methyl)-3-methylisonicotinamide] | > 20000 | –
220 | CC(C)Oc1nocc1C(=O)N[C@H](c1cn2ncc([C@H](NC(=O)CC3CC(F)(F)C3)C3CC3)cc2n1)C1CCC(F)(F)CC1 [Example 292, N—((S)-(7-((R)-Cyclopropyl(2-(3,3-difluorocyclobutyl)acetamido)methyl)imidazo[1,2-b]pyridazin-2-yl)(4,4-difluorocyclohexyl)methyl)-3-isopropoxyisoxazole-4-carboxamide] | 870 | –
4800 | Cc1nonc1C(=O)N[C@H](c1cn2ncc([C@H](NC(=O)[C@@]34C[C@@H]3[C@@H](F)C4)C3CC3)cc2n1)C1CCC(F)(F)CC1 (relative stereo) [Example 341, N—((S)-(7-((R)-Cyclopropyl((1R*,3S*,4S*)-3-fluorobicyclo[2.1.0]pentane-1-carboxamido)methyl)imidazo[1,2-b]pyridazin-2-yl)(4,4-difluorocyclohexyl)methyl)-4-methyl-1,2,5-oxadiazole-3-carboxamide] | > 20000 | –
3000 | CCc1noc(C)c1C(=O)N[C@H](c1cn2ncc([C@H](NC(=O)CCC(F)(F)F)C3CC3)cc2n1)C1CCC(F)(F)CC1 [Example 82, N—((S)-(7-((R)-Cyclopropyl(4,4,4-trifluorobutanamido)methyl)imidazo[1,2-b]pyridazin-2-yl)(4,4-difluorocyclohexyl)methyl)-3-ethyl-5-methylisoxazole-4-carboxamide] | > 20000 | –

Structure (SMILES) | IC50 [1] [nM] | IC50 ([2]; Homo sapiens, Keratinocyte) [nM] | IC50 [2] [nM]
Cc1nonc1C(=O)N[C@H](c1cn2ncc([C@H](NC(=O)COC3CC(F)(F)C3)C3CC3)cc2n1)C1CCC(F)(F)CC1 [Example 308, N—((S)-(7-((R)-Cyclopropyl(2-(3,3-difluorocyclobutoxy)acetamido)methyl)imidazo[1,2-b]pyridazin-2-yl)(4,4-difluorocyclohexyl)methyl)-4-methyl-1,2,5-oxadiazole-3-carboxamide] | 200 | 1700 | –
